Assay results from patent publication US20070298413A1, “Topoisomerase Modulators Assays” (AstraZeneca AB, priority 2003, published 2007).
Converted amounts (≈) assume the structure as drawn. Where two headings read alike, the source gives them in different places. Each block holds one compound with its values, some of them ahead of it.

Key:
H. influenzae = assay: minimum inhibitory concentration (MIC); type: cell-based; settings: Haemophilus influenzae
[1] = tested on: bacteria that carry a DNA relaxation-stimulated lacZ gene on a plasmid (pRAS101, 19.4, pSB2.his); assay: plate lawn technique on X-Gal medium (blue ring); type: cell-based, E. coli; settings: spotted onto lawn of bacteria, overnight growth at 37° C.; clones pRAS101, 19.4 and pSB2.his similar
From the text: The principle of the screen is based on the observation that if known gyrase inhibitors are spotted onto X-Gal medium containing bacteria that carry a DNA relaxation-stimulated lacZ gene on a plasmid, clear zones of inhibition surrounded by a blue ring are formed after overnight growth. The blue ring presumably forms at the drug concentration where optimum relaxation-stimulation of the reporter gene has occurred before the cells are killed.
The following three clones were used: a) clone pRAS101 containing the gyrA promoter linked to the β-galactosidase gene; b) clone 19.4 (found by method described in section 3.3); and c) clone pSB2.his containing the hisD promoter linked to the β-galactosidase gene.
Cultures were grown overnight and diluted 1:1000 in (melted) L-agar cooled to 45° C. containing 50 μg/mL Ap and 60 μg/mL X-Gal. The medium was poured into 15×150 mm petri dishes immediately. After it had solidified, known gyrase inhibitors were applied automatically onto the solid agar surface using a Tomtec Quadra 96 machine as follows: 20 μg nalidixic acid (Nx), 100 μg novobiocin (Novo), 2 μg ciprofloxacin (Cipro), 10 μg coumermycin (Cou), 2 μg cinoxacin (Cinox), 2 μg pefloxacin (Pef), 2 μg fleroxacin (Fle), 2 μg flumequine (Flu) and 2 μg norfloxacin (Nor). […]

[2] = tested on: pRAS101, gyrA promoter linked to a lacZ gene; assay: microtiter plate β-galactosidase assay, pRAS101 positive control; type: cell-based, E. coli; settings: nalidixic acid 200 μg/ml, 2 hours at 37° C.
Experimental: The β-galactosidase assays were carried out in 96-well, flat bottom microtiter plates. Blue (lacZ^+) ampicillin-resistant colonies of all sizes and shades of blue were purified, inoculated into 200 μl media (L-broth containing 50 μg/ml ampicillin) and incubated overnight at 37° C. Cultures were then diluted 1:20 into fresh broth and incubated for 1.5 hours at 37° C. with shaking at 230 rpm to mid log phase. At this point half of each culture was transferred to a duplicate microtitre plate to which nalidixic acid had been added to give a final concentration of 200 μg/ml. Both plates were incubated at 37° C. for 2 hours to allow expression of the reporter gene that was then assayed. Before carrying out the β-galactosidase assay, absorbance WAS read automatically on the Molecular Devices Microplate Reader at 595 nm in order to measure the differences in the cell titers between control and treated cultures. 25 μl of β-galactosidase assay emulsion (prepared as follows: 5 mL ONPG (O-nitrophenyl-β-D-galactopyranodside) at 4 mg/ml, 5 mL 1× Z-buffer, 0.3 mL 1% SDS, 0.2 mL chloroform, 0.2 mL ether), was added to each well. The plates were read at 28° C. on a Molecular Devices Microplate Reader at 420 nm for 2 mins at 0.09 sec intervals. […]

[3] = tested on: clone 19.4 (relaxation-stimulated promoter upstream of lacZ in pSB2); assay: microtiter plate β-galactosidase assay, clone 19.4; type: cell-based, E. coli; settings: nalidixic acid 200 μg/ml, 2 hours at 37° C., treated vs control culture
From the text: The T4 terminator (T4 t) and lacZ gene were inserted into a plasmid expression vector pTB244 to create the construct pSB2. In this construct, the transcription of the lacZ gene, without a promoter, is prevented by the upstream T4 terminator, such that insertion of a promoter is necessary for lacZ expression. A random E. coli DNA library was constructed by inserting Escherichia coli chromosomal Sau3A fragments into the BamHI site of the screening vector pSB2, upstream of the promoter-less lacZ gene.
The library was transformed into the lacZ^− E. coli host strain MSD1011 (MM294 Δlac=E. coli K12 hsdR Δlac). […] Blue transformants were screened for the presence of relaxation-stimulated promoters using the microtiter plate β-galactosidase assay.
The β-galactosidase assays were carried out in 96-well, flat bottom microtiter plates. Blue (lacZ^+) ampicillin-resistant colonies of all sizes and shades of blue were purified, inoculated into 200 μl media (L-broth containing 50 μg/ml ampicillin) and incubated overnight at 37° C. […] Before carrying out the β-galactosidase assay, absorbance WAS read automatically on the Molecular Devices Microplate Reader at 595 nm in order to measure the differences in the cell titers between control and treated cultures. […] The plates were read at 28° C. on a Molecular Devices Microplate Reader at 420 nm for 2 mins at 0.09 sec intervals.

MIC (H. influenzae; measured MIC against H. influenzae, read-out: MIC): 0.125 µg/mL (≈ 0.358 µM)
SMILES: CC1(C)S[C@@H]2[C@H](NC(=O)[C@H](N)c3ccccc3)C(=O)N2[C@H]1C(=O)O [ampicillin]

SMILES: O=C(N[C@H](CO)[C@H](O)c1ccc([N+](=O)[O-])cc1)C(Cl)Cl [chloramphenicol]
stimulation of the DNA relaxation-stimulated reporter gene (blue ring) [1]: little to no stimulation

SMILES: CCn1cc(C(=O)O)c(=O)c2ccc(C)nc21 [nalidixic acid]
stimulation ratio (average) [2]: 3.1 fold
relaxation stimulated transcription ratio [3]: 6.1

SMILES: CO[C@@H]1[C@@H](OC(N)=O)[C@@H](O)[C@H](Oc2ccc3c(O)c(NC(=O)c4ccc(O)c(CC=C(C)C)c4)c(=O)oc3c2C)OC1(C)C [novobiocin]
MIC (H. influenzae): 0.125 µg/mL (≈ 0.204 µM)
